The source of these data is US20220202783A1, “Use Of ADAM9 Inhibitor As Immunomodulator” (China Medical University, priority 2019, published 2022).

Assay type in all cases: cell-based
Holding throughout (parameters): key to effect of inhibiting tumor cell growth: “+” represents that the compound has the effect of inhibiting tumor cell growth

Data set [1] is described as follows: cytotoxicity assay in 293 cells. To be noted: 293.
For data set [2], the system named is kidney cancer cells (293). In words: cytotoxicity assay in 293 cells. The settings on record: Homo sapiens, HEK293.
Data set [3] concerns lung cancer cells (Bm7brmx2). In words: cytotoxicity assay in Bm7brmx2 cells. The protocol:
(§1) Please refer to FIG. 1A, FIG. 1B and Table 2, which show the analysis results of the compound of Formula (I) inhibiting ADAM9 activity. In FIG. 1A, Bm7 lung cancer cells were treated with the derivatives of the compound 6X-0310, and then cultured under anchorage-free culture condition. The expressions of ADAM9 and CDCP1 in Bm7 lung cancer cells were detected by Western blot, in which EF1α is an internal control, and mock represents Bm7 lung cancer cells without treatment. […] In the experiment, the compounds of Formula (I) of Example 1 to Example 32 were further performed cytotoxicity assay to measure the IC50 value of the compounds of Formula (I) of the present disclosure in lung cancer cell lines.

Data set [4] has as its system lung cancer cells (Bm7brmx2-2nd). The data set is described as follows: cytotoxicity assay in Bm7brmx2-2nd cells. How it is done: as §1
Data set [5] is described as follows: cytotoxicity assay in HNOF cells. The settings on record: human, HNOF cells.
The test system of data set [6] is HNOF. In words: cytotoxicity assay in HNOF cells. The settings on record: HNOF.
Data set [7] has as its system lung cancer cells (Bm7brmx2-1st). In words: cytotoxicity assay in Bm7brmx2-1st cells. How it is done:
as §1

The test system of data set [8] is lung cancer cells (H1299). The data set is described as follows: cytotoxicity assay in H1299 cells. The settings on record: for effect of inhibiting tumor cell growth: H1299; for IC50: Homo sapiens, NCI-H1299. How it is done: as §1
The test system of data set [9] is lung cancer cells (A549). The data set is described as follows: cytotoxicity assay in A549 cells. To be noted: for IC50: Homo sapiens. How it is done:
as §1

Data set [10] relates to lung cancer cells (TC1). The data set is described as follows: cytotoxicity assay in TC1 cells. To be noted: for IC50: TC-1. How it is done: as §1

The structures appear in SMILES notation.

A word on the IC50: it is the point on the concentration scale where inhibition reaches its midpoint. Turning to `COc1ccc(C(=O)Nc2nc(CCN3C(=O)c4ccccc4C3=O)cs2)cc1OC` [5X-0314], the “effect of inhibiting tumor cell growth” value in [1], in data set [3], in [4], in data set [6], in data set [7] and in data set [8] was “+” in each case. In addition, the “effect of inhibiting tumor cell growth” value in data set [9] and in data set [10] was “+” each time. Moreover, the IC50 in data set [2] came to 49.3 µM; in data set [3], 66.5 µM; in data set [4], 90.6 µM; in [5], 85.7 µM; in data set [7], 51 µM; in data set [8] it was 116 µM. Further, the IC50 in data set [9] came to 184 µM; in data set [10], 202 µM.

As for `O=C(Nc1nc(CCN2C(=O)c3ccccc3C2=O)cs1)c1ccc([N+](=O)[O-])cc1` [6X-0202], the “effect of inhibiting tumor cell growth” value in data set [1], in [3], in [4], in data set [6], in [7] and in data set [8] was “+” each time. Also, the “effect of inhibiting tumor cell growth” value in [9] and in [10] was “+” each time. In addition, the IC50 was 47.6 µM in data set [2]; more than 125 µM in [3]; 1270 µM in data set [4]; 78.3 µM in data set [5]; 68.6 µM in [7]; 335 µM in data set [8]. Further, the IC50 is 766 µM in data set [9] and 125 µM in data set [10].

For the molecule `N#C/C(=C/c1cc([N+](=O)O)ccc1Sc1ccccn1)c1nc(CCN2C(=O)c3ccccc3C2=O)cs1` [6X-0229], the “effect of inhibiting tumor cell growth” value in data set [1], in [3], in [4], in [6], in data set [7] and in data set [8] was “+” throughout. In addition, the “effect of inhibiting tumor cell growth” value in [9] and in data set [10] was “+” throughout. Also, the IC50 turned out to be 133 µM in data set [2]; 374 µM in data set [3]; 113 µM in [4]; 145 µM in [5]; 56.2 µM in data set [7]; 171 µM in data set [8]. Moreover, the IC50 in data set [9] came to 109 µM; in [10], 167 µM.

In the case of `N#C/C(=C\c1cccc2ccccc12)c1nc(CCN2C(=O)c3ccccc3C2=O)cs1` [6X-0309], the “effect of inhibiting tumor cell growth” value in data set [1], in data set [3], in data set [4], in [6], in [7] and in data set [8] was “+” throughout. Besides, the “effect of inhibiting tumor cell growth” value in [9] and in [10] was “+” in each case. In addition, the IC50 stood at 82.2 µM in [2]; 89.8 µM in [3]; 385 µM in data set [4]; 114 µM in data set [5]; 628 µM in data set [7]; 93.8 µM in [8]. Also, the IC50 in data set [9] is more than 125 µM; in [10], 89.4 µM.
